The source of these data is the OligoGym collection.

“And” between values parts separate entries of the source, which are not always exact repeats. Identical values can stand only once. These antisense oligonucleotides have a phosphorothioate backbone; sugars and methylation of C are not fully specified.
Further: test concentration or dose not given here.

The target in one data set is MAP2K4. Particulars: ASO.
In the case of CAGTCTCTCTATGTGTGGGT, the remaining target (mRNA or protein) (fraction of control) amounted to 0.69.
Take AAGGATGCACGTTCTAGGTG: the remaining target (mRNA or protein) (fraction of control) worked out at 0.55.
For the sequence GATTTTGCCTAAAATTTCTT, the remaining target (mRNA or protein) (fraction of control) is not below 1.
On to GATATCAATCGACATACATG, for which the remaining target (mRNA or protein) (fraction of control) came out at 0.83.
Sequence TTTGTTTTAATAAAGATACA had a remaining target (mRNA or protein) (fraction of control) of 0.88.
The same measure, in the same setting: the result for AACACCAATCTTATTGCACA reads 0.98; that for GTTCATCACAAAAGAGCAGG, 0.89.
Regarding TAGCAGCGATATCAATCGAC, the remaining target (mRNA or protein) (fraction of control) was 0.55.
The sequence GGAGACACAGCAATACGTGC registered a remaining target (mRNA or protein) (fraction of control) of 0.61.
The sequence GCCTCTTGTAACAGTGCTGA registered a remaining target (mRNA or protein) (fraction of control) of 0.47.
In turn, GAGATAATCACTTTTGAATT came in with a remaining target (mRNA or protein) (fraction of control) not below 1.
As for ATGGAGGATGATGGCTTGCT, the remaining target (mRNA or protein) (fraction of control) was found to be 0.83.
Regarding GCTCGGGCTCGGAGCCGCCA, the remaining target (mRNA or protein) (fraction of control) amounted to 0.47.
The same measure, in the same setting: the result for GCTGTGCAAGCTCTTCTCAC reads 0.63.
Sequence ATATTTCCACTTCTGTCCAG registered a remaining target (mRNA or protein) (fraction of control) of 0.67.
For the sequence CACTACTCCGCATTACTACA, the remaining target (mRNA or protein) (fraction of control) was 0.56.
Still for that read-out and setting: the result for TGTGTCCTTCCAGGATTTGG reads 0.7; that for AAATTTGGCTGAGCACATCG, 0.53; that for AGACCTGGACCAGTGATGGC, 0.6.
AATCGACATACATGGGAGAG: the remaining target (mRNA or protein) (fraction of control) was determined as 0.55.
In turn, CACCTTCTTTGACAAGTGGC showed a remaining target (mRNA or protein) (fraction of control) of 0.42.
As for GTCTGATGTAGCAGCGATAT, the remaining target (mRNA or protein) (fraction of control) was found to be 0.53.
On to ACCACTCACAGTGCTGCTTC, for which the remaining target (mRNA or protein) (fraction of control) was 0.68.
In turn, GTGAAATCCCAGTGTTGTTC came in with a remaining target (mRNA or protein) (fraction of control) of 0.91.
With GAGTAAACCTTGCTGTAGAT, the remaining target (mRNA or protein) (fraction of control) stood at 0.73.
The same measure, in the same setting: the result for GAAATATATAGCTGCTACAA reads not below 1; that for GAGCCGCCGCCGCCGCTCGG, not below 1; that for ATGGGAGAGCTGGGAGTAGC, not below 1.
For TAGAAATGAATTTAAGATGT, the remaining target (mRNA or protein) (fraction of control) is not below 1.
Still for that read-out and setting: the result for TAGAGTCTGATGTAGCAGCG reads 0.79.
As for GATCCTCATCTGGTCCAATG, the remaining target (mRNA or protein) (fraction of control) was 0.6.
Still for that read-out and setting: the result for TATCACATCAGTAATCTATT reads not below 1.
TTTAAACACTAGCGATTATG: the remaining target (mRNA or protein) (fraction of control) was not below 1.
As to TGATGTAGCAGCGATATCAA, the remaining target (mRNA or protein) (fraction of control) turned out to be 0.72.
Consider TATTTTAATGTTCACCTCTT, for which the remaining target (mRNA or protein) (fraction of control) is not below 1.
Sequence CACACAATAGAACGGTCAGA displayed a remaining target (mRNA or protein) (fraction of control) of 0.9.
Still for that read-out and setting: for GGAGCCGCCATTGTTGGGAG the value was 0.91.
In turn, GGCTCGGAGCCGCCATTGTT yielded a remaining target (mRNA or protein) (fraction of control) of 0.56.
Regarding CAACTTCAGTGCTTTGCGTT, the remaining target (mRNA or protein) (fraction of control) worked out at 0.42.
ATGCTGCTGACGGCCGGGTG registered a remaining target (mRNA or protein) (fraction of control) of 0.76.

The next data set addresses BIRC3. The conditions noted are these: ASO.
With TACAATTTCAATAATGCT, the remaining target (mRNA or protein) (fraction of control) came to 0.62.
As to AACATCATGTTCTTGTTC, the remaining target (mRNA or protein) (fraction of control) was found to be 0.91.
The sequence GGGTCTCAGTATGCTGCC showed a remaining target (mRNA or protein) (fraction of control) of 0.79.
TTCAGTGGCATTCAATCA returned a remaining target (mRNA or protein) (fraction of control) of 0.77.
Sequence CCTTCGATGTATAGGACA showed a remaining target (mRNA or protein) (fraction of control) not below 1.
Still for that read-out and setting: for AGCAAGCCACTCTGTCTC the value was 0.5; for AATTGTTCTTCCACTGGT, not below 1.
The sequence CTTCTCCAGGCTACTAGA gave a remaining target (mRNA or protein) (fraction of control) of 0.5.
For CATGTCCCTAAAATGTCA, the remaining target (mRNA or protein) (fraction of control) is not below 1.
In turn, GCAGCATTAATCACAGGA returned a remaining target (mRNA or protein) (fraction of control) not below 1.
As for GCACTTTTATTTCTTAGA, the remaining target (mRNA or protein) (fraction of control) worked out at 0.3.
Sequence CTTAGAGGTACGTAAAAT displayed a remaining target (mRNA or protein) (fraction of control) of 0.71.
The sequence GCTCTGCTGTCAAGTGTT showed a remaining target (mRNA or protein) (fraction of control) of 0.43.
As for GCATGGCTTTGCTTTTAT, the remaining target (mRNA or protein) (fraction of control) is not below 1.
Still for that read-out and setting: for TCATCTCCTGGGCTGTCT the value was 0.6.
In turn, CTGAAATTTTGATTGAAT registered a remaining target (mRNA or protein) (fraction of control) of 0.86.
Sequence AGAGCCACGGAAATATCC had a remaining target (mRNA or protein) (fraction of control) of 0.91.
Still for that read-out and setting: the result for GAAACCAAATTAGGATAA reads 0.88; that for CAAACGTGTTGGCGCTTT, 0.65.
As for TGTAGTGCTACCTCTTTT, the remaining target (mRNA or protein) (fraction of control) was found to be 0.31.
The sequence CACAAGACCTAACTCAAA registered a remaining target (mRNA or protein) (fraction of control) of 0.73.
TTTGACATCATCACTGTT: the remaining target (mRNA or protein) (fraction of control) was not below 1.
Same read-out and setting: for TGTGTGACTCATGAAGCT the value was 0.77.
GGTCAACTTCTCCAGGCT yielded a remaining target (mRNA or protein) (fraction of control) of 0.35.
AGCAGGAAAAGTGGAATA gave a remaining target (mRNA or protein) (fraction of control) not below 1.
AAATCTTGATTTGCTCTG: the remaining target (mRNA or protein) (fraction of control) was determined as 0.93.
AAGAAGGAGCACAATCTT returned a remaining target (mRNA or protein) (fraction of control) of 0.3.
With ATATAACACAGCTTCAGC, the remaining target (mRNA or protein) (fraction of control) is not below 1.
TTAACGGAATTTAGACTC displayed a remaining target (mRNA or protein) (fraction of control) not below 1.
Sequence GTAAGTAATCTGGCATTT came in with a remaining target (mRNA or protein) (fraction of control) not below 1.
As to TAAAACCCTTCACAGAAG, the remaining target (mRNA or protein) (fraction of control) was not below 1.
TTAAGGAAGAAATACACA showed a remaining target (mRNA or protein) (fraction of control) not below 1.
TGGCTTGAACTTGACGGA showed a remaining target (mRNA or protein) (fraction of control) not below 1.
The same measure, in the same setting: the result for ATTTTAATTAGAAGCACT reads not below 1.
Sequence ACCATATTTCACTGATTC gave a remaining target (mRNA or protein) (fraction of control) of 0.3.
Regarding ATTTGTTACTGAAGAAGG, the remaining target (mRNA or protein) (fraction of control) is not below 1.
The sequence TGAAGTGTCTTGAAGCTG showed a remaining target (mRNA or protein) (fraction of control) not below 1.
TTTCTCTCTCCTCTTCCC: the remaining target (mRNA or protein) (fraction of control) stood at 0.9.
Sequence ACTGAAGACATTTTGAAT displayed a remaining target (mRNA or protein) (fraction of control) of 0.38.
With CTAACTCAAAGGAGGAAA, the remaining target (mRNA or protein) (fraction of control) is not below 1.

The target in another data set is TNF. The conditions noted are these: ASO.
Sequence CTTCTTCCCTGTTCCCCTGGC had a remaining target (mRNA or protein) (fraction of control) of 0.2.
Consider TGATCCACTCCCCCCTCCACT, for which the remaining target (mRNA or protein) (fraction of control) was 0.06 and 0.1.
As for CTGGTCCCTTGGTGTCCTCGC, the remaining target (mRNA or protein) (fraction of control) is 0.69.
As for CATTTCTTTTCCAAGCGAAC, the remaining target (mRNA or protein) (fraction of control) came out at 0.94.
Sequence AGGCTCCTGTTTCCGGGGAGA yielded a remaining target (mRNA or protein) (fraction of control) not below 1.
With TTCCCAACGCTGGGTCCTCCA, the remaining target (mRNA or protein) (fraction of control) is not below 1.
Same read-out and setting: for ATTTGGAATTCCCAGAGTGGG the value was not below 1; for AGGGAAGGAAGGAAGGAAGGG, not below 1.
Sequence AAACTTACCTACGACGTGGGC showed a remaining target (mRNA or protein) (fraction of control) not below 1.
As to GATCATGCTTTCCGTGCTCAT, the remaining target (mRNA or protein) (fraction of control) was found to be 0.94.
Sequence GCTGAGCAGGTCCCCCTTCTC returned a remaining target (mRNA or protein) (fraction of control) of 0.8.
The sequence CAGTCTGGGAAGCTCTGAGGG returned a remaining target (mRNA or protein) (fraction of control) not below 1.

The next data set addresses SMAD4. Particulars: ASO.
For TCTGTCTAAGTAGTAACT, the remaining target (mRNA or protein) (fraction of control) was not below 1.
In turn, CAATGGCTTCTGTCCTGT gave a remaining target (mRNA or protein) (fraction of control) not below 1.
With CAGTAAATCCATTCTGCT, the remaining target (mRNA or protein) (fraction of control) was not below 1.
TTTAAGGGATTCTCAATA had a remaining target (mRNA or protein) (fraction of control) not below 1.
Sequence TAGGTAGAGTGACGCTGC displayed a remaining target (mRNA or protein) (fraction of control) not below 1.
TGAAGCCTCCCATCCAAT yielded a remaining target (mRNA or protein) (fraction of control) of 0.9.
For the sequence GTGTTTCTTTGATGCTCT, the remaining target (mRNA or protein) (fraction of control) is not below 1.
Regarding ACCTTTCCCTATGAATGA, the remaining target (mRNA or protein) (fraction of control) stood at 0.65.
CATACATAACAGGTGAAG had a remaining target (mRNA or protein) (fraction of control) of 0.91.
The sequence TTTGATGCTCTGTCTTGG gave a remaining target (mRNA or protein) (fraction of control) not below 1.
Sequence TGGATGAAAGATTACAAT registered a remaining target (mRNA or protein) (fraction of control) not below 1.
The same measure, in the same setting: for CATACTTGATGGAGCATT the value was not below 1.
As for ATCCTTTGGAAACAGTGA, the remaining target (mRNA or protein) (fraction of control) is not below 1.
In turn, ACGATTACTTGGTGGATG displayed a remaining target (mRNA or protein) (fraction of control) of 0.88.
Still for that read-out and setting: the result for TGACGCTGCTTTTAGTGT reads not below 1.
Sequence ACTCTCTCCACCTTGTCT yielded a remaining target (mRNA or protein) (fraction of control) of 0.57.
On the same count and under the same terms, for ACAGAAGAATACAACTAC the value was not below 1; for TTGGGAAAGTTGGCAGTG, not below 1.
Still for that read-out and setting: for TACAACTCGTTCGTAGTG the value was not below 1; for GGCAGCAAACACATTTTC, not below 1; for CAGTAACAATAGGGCAGC, not below 1.
Regarding GTTTCTCCTAATCTTCAA, the remaining target (mRNA or protein) (fraction of control) is not below 1.
Same read-out and setting: the result for AGACACTATCACATTTTA reads not below 1.
GTAGTCCACCATCCTGAT registered a remaining target (mRNA or protein) (fraction of control) not below 1.
GAATGAAGGAAAAGAAAT displayed a remaining target (mRNA or protein) (fraction of control) not below 1.
